Data published in patent US20230102554A1 (GB002, INC., priority 2019, published 2023).

Experiments:
[1] = biological target: T1, Human PDGFRα, cytoplasmic domain (GST-PDGFRα) (Homo sapiens, UniProt P16234); assay: Human PDGFRα biochemical inhibition assay (off-chip Mobility Shift Assay)
T1 construct: made in house

[2] = biological target: T2, Human PDGFRβ, cytoplasmic domain (GST-PDGFRβ) (Homo sapiens, UniProt P09619); assay: Human PDGFRβ biochemical inhibition assay (off-chip Mobility Shift Assay)
T2 construct: made in house
T2 sequence (P09619 with tags, fused parts or gaps): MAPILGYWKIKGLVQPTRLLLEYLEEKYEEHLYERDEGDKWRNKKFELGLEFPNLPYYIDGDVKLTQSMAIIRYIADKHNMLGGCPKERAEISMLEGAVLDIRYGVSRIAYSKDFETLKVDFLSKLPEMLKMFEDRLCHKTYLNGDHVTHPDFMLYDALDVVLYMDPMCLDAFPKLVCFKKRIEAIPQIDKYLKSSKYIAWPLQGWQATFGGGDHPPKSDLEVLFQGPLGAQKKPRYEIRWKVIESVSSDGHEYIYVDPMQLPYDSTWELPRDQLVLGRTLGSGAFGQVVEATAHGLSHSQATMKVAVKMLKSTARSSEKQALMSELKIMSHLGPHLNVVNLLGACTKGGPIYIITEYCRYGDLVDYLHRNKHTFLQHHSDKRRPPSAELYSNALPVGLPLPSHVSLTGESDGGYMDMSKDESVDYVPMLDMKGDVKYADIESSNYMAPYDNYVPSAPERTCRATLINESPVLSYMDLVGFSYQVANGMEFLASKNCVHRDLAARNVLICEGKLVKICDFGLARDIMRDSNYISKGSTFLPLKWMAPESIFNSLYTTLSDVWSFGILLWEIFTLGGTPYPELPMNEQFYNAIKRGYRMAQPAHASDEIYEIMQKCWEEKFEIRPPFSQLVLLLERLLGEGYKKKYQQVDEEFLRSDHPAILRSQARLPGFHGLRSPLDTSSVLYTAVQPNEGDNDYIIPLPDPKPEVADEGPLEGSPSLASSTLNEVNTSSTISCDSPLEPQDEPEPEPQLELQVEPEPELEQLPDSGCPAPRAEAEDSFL
Summary of the method: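 GST-tagged cytoplasmic domain (aa 557-1106) from baculovirus was incubated 1 h at room temperature with compound, CSKtide, ATP at Km and Mg²⁺ in HEPES buffer, pH 7.5. Phosphorylated and unphosphorylated peptide were separated by off-chip mobility shift, and the product ratio P/(P+S) gave percent inhibition.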

T1 sequence (P16234 550-1089 T674I): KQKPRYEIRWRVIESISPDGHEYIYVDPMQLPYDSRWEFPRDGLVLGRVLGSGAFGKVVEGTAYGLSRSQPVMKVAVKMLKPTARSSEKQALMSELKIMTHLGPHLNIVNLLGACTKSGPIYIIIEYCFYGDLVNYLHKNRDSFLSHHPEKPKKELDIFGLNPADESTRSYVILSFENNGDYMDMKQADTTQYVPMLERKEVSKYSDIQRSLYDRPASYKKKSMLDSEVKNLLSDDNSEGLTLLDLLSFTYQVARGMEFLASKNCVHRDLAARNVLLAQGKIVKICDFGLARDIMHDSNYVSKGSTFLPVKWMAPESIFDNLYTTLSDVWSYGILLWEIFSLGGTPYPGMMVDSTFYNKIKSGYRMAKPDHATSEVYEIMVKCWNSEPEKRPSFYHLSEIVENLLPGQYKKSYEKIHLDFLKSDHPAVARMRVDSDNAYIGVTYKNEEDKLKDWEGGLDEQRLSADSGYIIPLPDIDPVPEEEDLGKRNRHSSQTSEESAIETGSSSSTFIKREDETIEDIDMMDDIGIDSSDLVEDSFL

SMILES	IC50 [1] [µM]	IC50 [2] [µM]
Cc1cncc(C(=O)Nc2cccc([C@H](C)Nc3cnc4cnn(C5CCOCC5)c4n3)c2)c1 [Compound 180, (S)-5-methyl-N-(3-(1-((1-(tetrahydro-2H-pyran-4-yl)-1H-pyrazolo[3,4-b]pyrazin-6-yl)amino)ethyl)phenyl) nicotinamide]	0.3 to 1	≥ 1
C[C@H](Nc1cnc2cn[nH]c2n1)c1cccc(NC(=O)c2ccc(C(F)(F)F)nc2)c1 [Compound 99, (S)-N-(3-(1-((1H-pyrazolo[3,4 b]pyrazin-6-yl)amino)ethyl)phenyl)-6-(trifluoromethyl) nicotinamide]	< 0.3	< 0.3
Cc1cncc(C(=O)Nc2cccc([C@H](C)Nc3cncc4nn(C)cc34)c2)c1 [Compound 747, (S)-5-methyl-N-(3-(1-((2-methyl-2H-pyrazolo[3,4-c]pyridin-4-yl)amino)ethyl)phenyl)nicotinamide]	≥ 1	≥ 1
CCn1cc2ncc(N[C@@H](C)c3cccc(NC(=O)c4ccc(C(F)(F)F)cc4)c3)nc2n1 [Compound 453, (S)-N-(3-(1-((2-ethyl-2H-pyrazolo[3,4-b]pyrazin-6-yl)amino)ethyl)phenyl)-4-(trifluoromethyl)benzamide]	< 0.3	< 0.3
CC(C)c1cc(C(=O)Nc2cccc([C@H](C)Nc3cnc4[nH]ccc4n3)c2)no1 [Compound 553, (S)-N-(3-(1-((5H-pyrrolo[2,3-b]pyrazin-2-yl)amino)ethyl)phenyl)-5-isopropylisoxazole-3-carboxamide]	< 0.3	< 0.3
CCn1nc(C(C)C)cc1C(=O)Nc1cccc([C@H](C)Nc2cnc3cnn(C)c3n2)c1 [Compound 167, (S)-1-ethyl-3-isopropyl-N-(3-(1-((1-methyl-1H-pyrazolo[3,4-b]pyrazin-6-yl)amino)ethyl)phenyl)-1H-pyrazole-5-carboxamide]	< 0.3	< 0.3
CCn1cc2ncc(N[C@@H](C)c3cccc(NC(=O)c4cnc5ccccc5c4)c3)nc2n1 [Compound 57, (S)-N-(3-(1-((2-ethyl-2H-pyrazolo[3,4-b]pyrazin-6-yl)amino)ethyl)phenyl)quinoline-3-carboxamide]	< 0.3	< 0.3
CSc1ncc(C(=O)Nc2cccc([C@H](C)Nc3cnc4cnn(C)c4n3)c2)cc1C [Compound 223, (S)-5-methyl-N-(3-(1-((1-methyl-1H-pyrazolo[3,4-b]pyrazin-6-yl)amino)ethyl)phenyl)-6-(methylthio)nicotinamide]	< 0.3	< 0.3
CCn1cc2ncc(N[C@@H](C)c3cc(NC(=O)c4ccc(C(F)(F)F)nc4)ccc3C(F)(F)F)nc2n1 [Compound 459, (S)-N-(3-(1-((2-ethyl-2H-pyrazolo[3,4-b]pyrazin-6-yl)amino)ethyl)-4-(trifluoromethyl)phenyl)-6-(trifluoromethyl) nicotinamide]	≥ 1	≥ 1
C[C@H](Nc1cnc2cnn(C)c2n1)c1cccc(NC(=O)c2cc(C(C)(C)C)on2)c1 [Compound 143, (S)-5-(tert-butyl)-N-(3-(1-((1-methyl-1H-pyrazolo[3,4-b]pyrazin-6-yl)amino)ethyl)phenyl)isoxazole-3-carboxamide]	< 0.3	< 0.3
C[C@H](Nc1cnc2cnn(C)c2n1)c1cccc(NC(=O)c2ccc(S(C)(=O)=O)cc2)c1 [Compound 220, (S)-N-(3-(1-((1-methyl-1H-pyrazolo[3,4-b]pyrazin-6-yl)amino)ethyl)phenyl)-4-(methylsulfonyl)benzamide]	< 0.3	0.3 to 1

Continued, values first:

IC50 [1] [µM]	IC50 [2] [µM]	SMILES
< 0.3	0.3 to 1	CCn1cc2ncc(N[C@@H](C)c3cccc(NC(=O)c4ccc(N5CCCC5)nc4)c3)nc2n1 [Compound 375, (S)-N-(3-(1-((2-ethyl-2H-pyrazolo[3,4-b]pyrazin-6-yl)amino)ethyl)phenyl)-6-(pyrrolidin-1-yl)nicotinamide]
< 0.3	< 0.3	CCn1cc2ncc(N[C@@H](C)c3cc(NC(=O)c4ccc(CN5CCOCC5)c(Cl)c4)ccc3F)nc2n1 [Compound 427, (S)-3-chloro-N-(3-(1-((2-ethyl-2H-pyrazolo[3,4-b]pyrazin-6-yl)amino)ethyl)-4-fluorophenyl)-4-(morpholinomethyl)benzamide]
< 0.3	0.3 to 1	CCn1cc2ncc(N[C@@H](C)c3cc(NC(=O)Cc4ccc(F)c(CN5CCN(C)CC5)n4)ccc3C)nc2n1 [Compound 726, (S)-N-(3-(1-((2-ethyl-2H-pyrazolo[3,4-b]pyrazin-6-yl)amino)ethyl)-4-methylphenyl)-2-(5-fluoro-6-((4-methylpiperazin-1-yl)methyl)pyridin-2-yl)acetamide]
< 0.3	0.3 to 1	CCn1cc2ncc(N[C@@H](C)c3cccc(NC(=O)c4cnc(NC5CC5)c(C)c4)c3)nc2n1 [Compound 352, (S)-6-(cyclopropylamino)-N-(3-(1-((2-ethyl-2H-pyrazolo[3,4-b]pyrazin-6-yl)amino)ethyl)phenyl)-5-methylnicotinamide]
< 0.3	< 0.3	CCn1cc2ncc(N[C@@H](C)c3cc(NC(=O)Cc4ccc(C)c(N5CCN(C)CC5)c4)ccc3C)nc2n1 [Compound 680, (S)-N-(3-(1-((2-ethyl-2H-pyrazolo[3,4-b]pyrazin-6-yl)amino)ethyl)-4-methylphenyl)-2-(4-methyl-3-(4-methylpiperazin-1-yl)phenyl) acetamide]
< 0.3	< 0.3	CCn1cc2ncc(N[C@@H](C)c3cccc(NC(=O)c4ccc(N5CCOCC5)c(Cl)c4)c3)nc2n1 [Compound 360, (S)-3-chloro-N-(3-(1-((2-ethyl-2H-pyrazolo[3,4-b]pyrazin-6-yl)amino)ethyl)phenyl)-4-morpholinobenzamide]
< 0.3	< 0.3	CCn1cc2ncc(N[C@@H](C)c3cc(NC(=O)c4ccc(N5CCN(C)CC5)c(C(F)(F)F)c4)ccc3F)nc2n1 [Compound 433, (S)-N-(3-(1-((2-ethyl-2H-pyrazolo[3,4-b]pyrazin-6-yl)amino)ethyl)-4-fluorophenyl)-4-(4-methylpiperazin-1-yl)-3-(trifluoromethyl)benzamide]
< 0.3	< 0.3	CCn1cc2ncc(N[C@@H](C)c3cccc(NC(=O)Nc4cnc(C5CC5)c(C)c4)c3)nc2n1 [Compound 734, (S)-1-(6-cyclopropyl-5-methylpyridin-3-yl)-3-(3-(1-((2-ethyl-2H-pyrazolo[3,4-b]pyrazin-6-yl)amino)ethyl)phenyl)urea]
< 0.3	0.3 to 1	CCn1cc2ncc(N[C@@H](C)c3cccc(NC(=O)c4ccc(CN5CC[C@@H](O)C5)c(C)c4)c3)nc2n1 [Compound 482, N-(3-((S)-1-((2-ethyl-2H-pyrazolo[3,4-b]pyrazin-6-yl)annno)ethyl)phenyl)-4-(((R)-3-hydroxypyrrolidin-1-yl)methyl)-3-methylbenzamide]
0.3 to 1	≥ 1	CCn1cc2ncc(N[C@@H](C)c3cccc(NC(=O)c4cnc5cnn(C)c5c4)c3)nc2n1 [Compound 62, (S)-N-(3-(1-((2-ethyl-2H-pyrazolo[3,4-b]pyrazin-6-yl)amino)ethyl)phenyl)-1-methyl-1H-pyrazolo[4,3-b]pyridine-6-carboxamide]
